Test results as given in patent US6673354B2, “Compositions and methods for treating papillomavirus-infected cells” (priority 1998, dated 2004).

B1: HPV11 E2 (other)
chain: MEAIAKRLDACQDQLLELYEENSIDIHKHIMHWKCIRLESVLLHKAKQMGLSHIGLQVVPPLTVSETKGHNAIEMQMHLESLAKTQYGVEPWTLQDTSYEMWLTPPKRCFKKQGNTVEVKFDGCEDNVMEYVVWTHIYLQDNDSWVKVTSSVDAKGIYYTCGQFKTYYVNFNKEAQKYGSTNHWEVCYGSTVICSPASVSSTVREVSIAEPTTYTPAQTTAPTVSACTTEDGVSAPPRKRARGPSTNNTLCVANIRSVDSTINNIVTDNYNKHQRRNNCHSAATPIVQLQGDSNCLKCFRYRLNDKYKHLFELASSTWHWASPEAPHKNAIVTLTYSSEEQRQQFLNSVKIPPTIRHKVGFMSLHLL

Experiments:
[1] = biological target: T1, interaction between HPV16 E1 and E2 (Human papillomavirus type 16, UniProt P03114); experiment: In vitro HPV E1-E2 binding assay (co-immunoprecipitation / Western blot), HPV16 E1 and HPV16 E2
T1 construct: made in house; host or cells: Hi-Five insect cells infected with recombinant baculovirus (pVL1392); nuclear extracts
Description: (§1) In vitro HPV E1-E2 binding assay. 300-500 ng protein from HPV16 or HPV11 EE-E1 expressing recombinant baculovirus infected cell nuclear extracts and 80-120 ng from HPV E2 baculovirus infected cell nuclear extracts were incubated in 500 μl NET-gel buffer (50 mM Tris-HCl pH7.5, 150 mM NaCl, 0.1% NP-40, 1 mM EDTA, 0.25% gelatin) at 4° C. for one hour. 1-2 μg anti-EE monoclonal antibody was added and incubated with shaking at 4° C. for one hour. Immune complexes were precipitated with protein-G agarose beads and washed twice for 30 minutes with ice cold NET-gel buffer. Precipitated proteins were detected by Western blot using appropriate primary antibodies and anti-rabbit IgG HRP or anti-mouse IgG HRP (Amersham). Membranes were blocked for one hour in TNET (10 mM Tris 7.5, 2.5 mM EDTA, 50 mM NaCl, 0.1% Tween-20) containing 4% (w/v) dry milk. Washes and antibody reactions were carried out in TNET, and proteins were visualized by chemiluminescence (Reneaissance ECL, NEN) and autoradiography. Bands were quantitated using the NIH image program.
Therefore, we reasoned that a peptide encompassing this domain of HPV16 E2 might inhibit interaction between HPV16 E1 and E2, thereby inhibiting HPV16 DNA replication (FIG. 5). In order to test this possibility, HPV16 E2 and epitope tagged full length HPV16 E1 (EE16-E1) proteins were expressed separately using baculovirus vectors. EE-E1 and associated E2 proteins were immunoprecipitated using an anti-EE epitope monoclonal antibody. Precipitated E2 was detected by Western blot using polyclonal antiserum raised to the DNA binding domain of HPV16 E2 (35). As shown in lane 2 of FIG. 6A, E2 co-immunoprecipitated with EE16-E1, but was not precipitated by the EE epitope antibody in the absence of EE16-E1 (lane 1). Peptides encompassing HPV16 E2 amino acids 29-51 (E2N-WP23) or residues 33-47 (E2N-WP15) of HPV16 E2 were then tested for inhibition of E1-E2 interaction. These peptide sequences were derived from the sequence of HPV16 E2, and were based on an alignment of amino terminal residues that are conserved among the papillomavirus E2 proteins (FIG. 5). […] Both the HPV16 E2 protein itself and the E2 derived peptides act specifically in these assays, since the E39A replication defective HPV16 E2 mutant bound only slightly to EE16-E1 (lanes 14). […] These peptides are named E2N-MP23 and E2N-MP15, respectively (see FIG. 5). […] We have previously shown that a domain spanning amino acids 421-647 of the HPV16 E1 carboxy terminus is necessary and sufficient for E2 interaction (45).

[2] = biological target: T2, interaction between HPV11 E1 and HPV16 E2 (Human papillomavirus 11, UniProt P04014); experiment: In vitro HPV E1-E2 binding assay, HPV11 E1 and HPV16 E2
T2 construct: made in house; host or cells: Hi-Five insect cells infected with recombinant baculovirus (HPV-11 EE-E1 virus a gift from Louise Chow); nuclear extracts
T2 sequence (P04014 whole entry): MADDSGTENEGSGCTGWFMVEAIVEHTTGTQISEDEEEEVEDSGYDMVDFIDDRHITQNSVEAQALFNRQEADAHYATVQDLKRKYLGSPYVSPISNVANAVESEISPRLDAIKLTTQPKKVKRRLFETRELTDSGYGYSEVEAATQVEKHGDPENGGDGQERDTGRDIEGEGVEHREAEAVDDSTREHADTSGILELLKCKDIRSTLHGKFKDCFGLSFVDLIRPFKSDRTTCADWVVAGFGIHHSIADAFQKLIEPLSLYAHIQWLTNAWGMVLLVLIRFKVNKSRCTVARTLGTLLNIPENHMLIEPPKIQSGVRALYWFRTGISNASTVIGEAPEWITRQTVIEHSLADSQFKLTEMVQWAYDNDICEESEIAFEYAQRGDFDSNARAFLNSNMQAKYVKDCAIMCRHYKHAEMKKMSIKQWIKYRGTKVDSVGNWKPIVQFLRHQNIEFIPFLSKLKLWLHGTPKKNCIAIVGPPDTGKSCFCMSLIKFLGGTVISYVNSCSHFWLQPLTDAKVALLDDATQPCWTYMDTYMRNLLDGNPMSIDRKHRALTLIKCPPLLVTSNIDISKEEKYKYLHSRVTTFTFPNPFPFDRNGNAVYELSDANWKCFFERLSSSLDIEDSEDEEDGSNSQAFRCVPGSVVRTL
Description: as §1
(§2) Very little is known about the physical properties of domains within the papillomavirus E1 and E2 proteins that are involved in intermolecular recognition and association. […] The effect of the E2N-WP15 peptide on these interactions was also assessed. […]

HPV11 E1/E2 interaction = biological target: T3, HPV11 E1/E2 interaction (Human papillomavirus 11, UniProt P04014); experiment: In vitro HPV E1-E2 binding assay, HPV11 E1 and HPV11 E2
T3 construct: made in house; host or cells: Hi-Five insect cells infected with recombinant baculoviruses (gift from Louise Chow); nuclear extracts
T3 sequence (P04014 whole entry): as above
Description: as §1, §2

[3] = test system: in vitro HPV16 DNA replication; experiment: In vitro replication of HPV16 DNA (293 cell extract, EE-E1, HPV16 E2); type: biochemical; conditions: 40 ng EE-E1 and 6 ng HPV16 E2, FIG. 7
Description: (§3) In vitro replication reactions. In vitro replication reactions were essentially as described by Kuo et al. (18) in 25 μl reactions at 37° C. for indicated times. Standard reactions were for 2 hours, and were terminated by addition of 200 μl stop solution (20 mM Tris-HCl pH 7.5, 10 mM EDTA, 0.1% SDS, and 20 μg/ml RNase A). After incubation at 37° C. for 15 minutes, proteinase K was added (200 μg/ml) and incubation was continued 30 minutes. Samples were extracted with 250 μl phenol/chloroform/isoamyl alcohol (25:24:1), ethanol precipitated, washed with 70% ethanol, dried, resuspended in 20-30μl TE, and analyzed on a 0.8% agarose gel (TAE). The agarose gel was dried onto Hybond N+ membrane (Amersham), and replicated DNA was visualized by autoradiography. Bands were quantitated by Phosphorimager analysis. Replication templates were pKS7838-7905 (nt7838-7905/1-130) containing the HPV16 replication origin, and pUC7874-99 containing the HPV11 origin of replication (nt7874-7933/1-99). pUC7874-99 was a generously provided by Dr. Louise Chow.
We sought to establish a system for the study of HPV16 DNA replication in vitro, and to determine whether specific interaction between HPV16 E1 and E2 was required for HPV16 DNA replication in this system. […] As has been documented for other papillomavirus E1 proteins, some replication was observed using relatively large amounts of E1 in the absence of E2 (lanes 2 through 7) (6, 16, 22, 33, 40, 48). […] Replication in this assay is ori-dependent, since the small amount of replication of the pKS plasmid lacking the HPV16 origin detected at high concentrations of EE-E1 (FIG. 3B, lanes 1-6) was not stimulated by E2 (FIG. 1B, lanes 7-12).
Since the E2N-WP23 and E2N-WP 15 peptides could inhibit interaction between […] E1 and E2, their ability to inhibit in vitro HPV16 DNA replication was also tested (FIGS. 7A and 7B).

[4] = test system: HPV16 E2/HPV11 E1 dependent replication of the HPV11 origin; experiment: In vitro replication of the HPV11 origin with HPV11 E1 and HPV16 E2; type: biochemical
Description: as §3
The ability of the E2N-WP15 peptide to inhibit HPV11 E1 mediated replication in vitro was also tested. As shown in FIG. 7B (lanes 1-9), HPV11 E1 could cooperate with HPV16 E2 in supporting dose responsive in vitro replication of the HPV11 ori. […]

[5] = biological target: T4, epitope tagged full length HPV16 E1 (EE16-E1) (human papillomavirus type 16, UniProt P03114 1-649); experiment: co-immunoprecipitation with anti-EE antibody (data not shown); pair read as HPV16 E1 with HPV11 E2
T4 construct: range 1-649; also called EE-E1; HPV16 EE-E1
T4 sequence: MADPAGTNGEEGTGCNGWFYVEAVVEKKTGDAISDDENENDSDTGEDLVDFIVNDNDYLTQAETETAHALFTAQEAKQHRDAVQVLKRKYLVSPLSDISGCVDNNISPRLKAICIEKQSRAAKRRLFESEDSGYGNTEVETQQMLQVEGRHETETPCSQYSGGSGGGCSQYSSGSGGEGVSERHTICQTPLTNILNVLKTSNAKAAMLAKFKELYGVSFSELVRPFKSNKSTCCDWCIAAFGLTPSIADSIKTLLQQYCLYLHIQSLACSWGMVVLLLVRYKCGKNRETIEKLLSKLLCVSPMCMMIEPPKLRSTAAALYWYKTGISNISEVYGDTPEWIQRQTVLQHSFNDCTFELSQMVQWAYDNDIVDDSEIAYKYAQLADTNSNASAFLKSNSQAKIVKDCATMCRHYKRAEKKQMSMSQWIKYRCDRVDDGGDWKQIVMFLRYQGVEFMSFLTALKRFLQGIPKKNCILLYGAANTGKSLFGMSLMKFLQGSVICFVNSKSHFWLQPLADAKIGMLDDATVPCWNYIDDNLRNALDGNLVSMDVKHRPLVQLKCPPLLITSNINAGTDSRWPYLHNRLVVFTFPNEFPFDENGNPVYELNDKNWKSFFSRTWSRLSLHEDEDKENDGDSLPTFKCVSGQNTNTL

Row | Molecule | effect on E1-E2 interaction of peptide added at 5 minutes ([1]; 50 μM final concentration, added 5 minutes after start of binding reaction, terminated at 60 minutes) | effect on E1-E2 interaction of peptide added at or after 10 minutes ([1]; 50 μM final concentration, added at or after 10 minutes) | inhibition of HPV16 E1-E2 interaction ([1]; increasing peptide concentrations, FIG. 6A) | mode of inhibition of E1-E2 interaction ([1]; inhibition plotted as a function of substrate concentration (data not shown)) | inhibition of interaction between HPV11 E1 and HPV16 E2 [2] | inhibition of HPV11 E1/E2 interaction (HPV11 E1/E2 interaction) | inhibition of in vitro HPV16 DNA replication [3] | inhibition of HPV16 E2/HPV11 E1 dependent replication of the HPV11 origin [4] | binding result [5]
1 | WKHMRLECAIYYKAR [E2N-WP15] | significant inhibition of subsequent E1-E2 interaction | only a minimal effect on the stability of this E1-E2 interaction | comparable inhibition of E1-E2 interaction | competitive inhibition | effectively inhibited | effectively inhibited | could effectively inhibit in vitro replication | approximately the same effectiveness as its inhibition of HPV16 E1/E2 mediated in vitro replication | 
2 | B1 |  |  |  |  |  |  |  |  | no binding
